Patent US5645072A, “Real time chemical exposure and risk monitor” (priority 1995, dated 1997)

How the values were obtained:
[1] = cited from earlier work
[2] = Paustenbach et al., 1988, cited from earlier work
[3] = Real-time measurement of CCl4 in combined exhaled breath of rats after a single intravenous injection (TAGA tandem mass spectrometer); assay type: in vivo, male Fischer 344 rat
Source text: Male, Fischer 344 rats, weighing 225-275 g, were purchased either with, or without, indwelling jugular vein cannulas from Charles River, Inc., Raleigh, N.C. Animals were housed singularly in solid-bottom cages with hardwood chips, and were acclimated on a 12-hr light/dark cycle prior to use. Rodent chow (NIH-07) and water were provided ad libitum throughout the acclimation period. Cannulas were maintained by periodic flushing with heparinized saline.
In three different experiments, either two or four animals were placed in nose-only restraint tubes (C. H. Technologies, Westwood, N.J.) with access slots that allow the cannulas to be exteriorized from the animal. Each animal restrainer was connected via a nose port to the rat manifold. The exhaled breath from the rat exited the nose port and was driven into a common mixing chamber by a continuous flow of supplied breathing air. Samples for analysis by the mass spectrometer were continually drawn from the contents of the mixing chamber. Rats placed in restraint tubes are connected to the manifold. The exhaled breath from each animal is passed into a common heated mixing chamber, where the mass spectrometer draws a sample via a drying tube.
Each animal received a single intravenous injection of CCl4 in isotonic saline, either through the Jugular vein cannula, or via the tail vein. In the first experiment, two animals were utilized, each receiving a dose of 0.6 mg/kg body weight (BW) (250 μl volume) through the jugular vein cannula. Cannulas were flushed with saline immediately following injection. The second and third experiments utilized 4 animals each, with each animal receiving a dose of 1.5 mg/kg BW (1 ml volume) through the tail vein. In all cases, the length of time of injection was approximately 1 minute. The combined exhaled breath from the exposed animals was measured continuously to determine the concentration of CCl4 exhaled. The resulting concentration data were adjusted to account for dilution by the flow of supplied breathing air and divided by the number of rats to allow expression as ng CCl4 /l air per rat.
The expired breath from the rats was monitored by interfacing the rats to a tandem mass spectrometer. The manifold was a modification of a human breath interface patented by Kenny and Kelly (1991) U.S. Pat. No. 5,042,501 herein incorporated by reference. This device can accommodate up to six rats connected by the nose-only restraint tubes mentioned above. Breathing air (1000 ml/min) is constantly supplied to the rats through the center tube (175 ml volume) of the manifold at a rate greater than the combined ventilation rate of the animals on the system, and can be adjusted for the number of rats being monitored. Re-breathing of the exhaled air was considered to be negligible. The exhaled breath from each rat flows into a common heated mixing chamber (300 ml volume) from which the mass spectrometer continuously draws its sample. The excess exhaled air is vented from the mixing chamber with negligible flow restriction via a large bore hole exit tube. Intensity data from the mass spectrometer was converted to concentration (ppb) through the use of external standards and a calibration curve for carbon tetrachloride. A new calibration curve was generated each day of experimentation.
During these experiments, the expired breath of the rats was monitored in real-time using a Sciex Trace Atmospheric Gas Analyzer (TAGA) 6000E tandem mass spectrometer (Sciex, Thornhill, Ontario, Canada) equipped with a low-pressure chemical ionization source (LPCI). The TAGA combines sampling and analysis into one rapid operation, while maintaining a very high level of sensitivity and selectivity (Dawson et al. 1982a; 1982b). The TAGA consists of a LPCI source and two mass filters in series, separated by a gas-collision region. Organic molecules in the sampled air stream are ionized directly at approximately 1 torr by the chemical reactions generated about a Townsend discharge electrode. […]

[4] = 0.6 mg/kg BW, jugular vein cannula, two rats, FIG. 3a

ClC(Cl)(Cl)Cl [CCl4, carbon tetrachloride]
Partition coefficient Blood: Air ([1]; Gargas et al., 1986b): 4.52
Partition coefficient Liver: Blood ([1]; Gargas et al., 1986b): 3.14
Partition coefficient Slowly perfused: Blood ([1]; Gargas et al., 1986b): 2.0
Partition coefficient Richly perfused: Blood ([1]; Set equivalent to partition coefficient for liver: blood): 3.14
Vmaxc (Metabolism) ([2]; body weight 250 g): 13.8 μg CCl4 /min per kg
Km (Metabolism) [2]: 0.25 µg/mL
first pass elimination through the lung [3, 4]: extremely rapid
levels available for subsequent distribution into the entire blood volume [3, 4]: very low levels
fraction of CCl4 held up in the circulating blood supply ([3]; 1.5 mg/kg BW, tail vein, four rats, FIG. 3b, compared with jugular vein): larger fraction
elimination through the lung (exhalation profile) ([3]; 1.5 mg/kg BW, tail vein, four rats, FIG. 3b, repeat gave same pattern): initial sharp peak
time for which the decay of the CCl4 can be followed after the injection before returning to baseline ([3]; FIGS. 3a and 3b, single i.v. injection): 30 to 35 min
Tmax ([3]; rat, exhaled breath, iv, single i.v. injection, 0.6 mg/kg jugular vein or 1.5 mg/kg tail vein, consistent with calculated sample-introduction delay (28.5 seconds), read-out: peak concentration of CCl4 in exhaled breath occurred in (time from the end of the injection) (converted)): ~30 s
acetone in exhaled breath (biomarker of CCl4-induced lipid peroxidation) ([3]; single i.v. injection of CCl4): not detectable
